# Assay results reported in patent EP4782453A1 (Beyang Therapeutics Co., Ltd., priority 2023, dated 2025).
# Target: T1, Menin-MLL (Homo sapiens, UniProt O00255)
# T1 construct: His-Menin (M1-L615 end); purchased BIORTUS BP9210
# T1 sequence (O00255 1-615 isoform O00255-1): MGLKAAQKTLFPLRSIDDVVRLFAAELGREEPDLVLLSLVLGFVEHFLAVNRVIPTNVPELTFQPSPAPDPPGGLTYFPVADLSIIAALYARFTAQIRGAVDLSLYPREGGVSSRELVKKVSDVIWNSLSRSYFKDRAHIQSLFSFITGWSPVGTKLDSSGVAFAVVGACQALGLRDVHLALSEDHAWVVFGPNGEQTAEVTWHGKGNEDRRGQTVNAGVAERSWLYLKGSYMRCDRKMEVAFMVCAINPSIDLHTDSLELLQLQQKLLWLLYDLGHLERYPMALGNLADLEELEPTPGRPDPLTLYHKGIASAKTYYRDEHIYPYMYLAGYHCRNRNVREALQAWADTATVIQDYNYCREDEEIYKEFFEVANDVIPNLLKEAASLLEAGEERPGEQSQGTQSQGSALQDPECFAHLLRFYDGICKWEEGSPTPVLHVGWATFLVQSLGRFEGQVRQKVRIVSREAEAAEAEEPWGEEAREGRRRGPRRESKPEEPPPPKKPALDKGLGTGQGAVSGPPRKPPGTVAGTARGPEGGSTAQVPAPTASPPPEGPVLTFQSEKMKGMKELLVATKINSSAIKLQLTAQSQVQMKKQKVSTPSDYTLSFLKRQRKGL
# Test: Inhibitory activity against Menin-MLL binding (fluorescence polarization)
# Conditions: Menin-MLL IC50, fluorescence polarization; 150 nM His-Menin, 15 nM FITC-MLL; 25°C for 60 min
# In short: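 Fluorescence polarization competition: compound and 150 nM His-tagged menin (residues M1-L615) sit 15 min at 25 °C in pH 7.5 HEPES buffer with NaCl, DTT and BSA; 15 nM FITC-labelled MLL peptide then binds for 60 min. IC50 fitted sigmoidally from mP values, duplicate wells.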
row,Structure (SMILES),IC50
1,CC[C@@H](C)[C@H](NC)C(=O)N1CC(c2cc(-c3ccc(F)cc3C(=O)N(CC)C(C)C)c3c(F)nc(C)n3c2)C1 [Example 318],39 nM
2,"CCN(C(=O)c1cc(F)ccc1-c1cc(N2CC3(CN(C[C@H]4CC[C@H](NS(=O)(=O)CC)CC4)C3)C2)cn2c(C)ncc12)C(C)C [Example 89, N-ethyl-5-fluoro-2-[3-methyl-6-(6-{[(1r,4r)-4-ethanesulfonamidocyclohexyl]methyl}-2,6-diazaspirocyclo[3.3]heptan-2-yl)imidazo[1,5-a]pyridin-8-yl]-N-(isopropyl)benzamide]",173 nM
3,"CCN(C(=O)c1cc(F)ccc1-c1cc(C2CN([C@H](CCCN3CCN4C(=O)OCC4(CO)C3)C(C)C)C2)cn2c(C)ncc12)C(C)C (stereo partly drawn) [Example 484, 2-(6-{1-[(3R)-6-[8^a-(hydroxymethyl)-3-oxo-hexahydro-1H-[1,3]oxazolo[3,4-a]pyrazin-7-yl]-2-methylhexan-3-yl]azacyclobutan-3-yl}-3-methylimidazo[1,5-a]pyridin-8-yl)-N-ethyl-5-fluoro-N-(isopropyl)benzamide]",4.2 nM

# Same assay, conditions: fluorescence polarization; 150 nM His-Menin, 15 nM FITC-MLL; 25°C for 60 min; read-out: Menin-MLL IC50
row,Structure (SMILES),IC50
1,CCN(C(=O)c1cc(F)ccc1-c1cc(C2CN(C(CN3CCC(OC)CC3)C(C)C)C2)cn2c(C)ncc12)C(C)C (stereo not shown) [Example 444],45 nM
2,CCN(C(=O)c1cc(F)ccc1-c1cc(N2CCN(C(=O)[C@@H]3C[C@H](OC)CN3)CC2)cn2c(C)nc(Cl)c12)C(C)C [Example 109],96 nM
3,"CC[C@H](C1CCN(C(C)=O)CC1)N1CC(c2cc(-c3ccc(F)cc3C(=O)N3CCOC[C@H]3C)c3c(F)nc(C)n3c2)C1 [Example 280-2, 1-{4-[(1R)-1-[3-(1-fluoro-8-{4-fluoro-2-[(3R)-3-methylmorpholin-4-carbonyl]phenyl}-3-methylimidazo[1,5-a]pyridin-6-yl)azacyclobutan-1-yl]propyl]piperidin-1-yl}ethan-1-one]",160 nM
4,Cc1nc(F)c2c(-c3ccc(F)cc3C(=O)N3CCOC[C@H]3C)cc(C3CN(CC4CCN(S(=O)(=O)C5CC5)CC4)C3)cn12 [Example 252],109 nM
5,"CCN(C(=O)c1cc(F)ccc1-c1cc([C@H]2CCN(CC3(O)CCC(NS(=O)(=O)CC)CC3)C2)cc2c1cnn2C)C(C)C (stereo partly drawn) [Compound 55-1-2, N-ethyl-5-fluoro-2-[1-methyl-6-[(3R)-1-{[(1r,4r)-4-ethanesulfonamido-1-hydroxylcyclohexyl]methyl}pyrrolidin-3-yl]-1H-indazol-4-yl]-N-(isopropyl)benzamide]",120 nM
6,"CCN(C(=O)c1cc(F)ccc1-c1cc(C2CCN(C(=O)[C@H]3N[C@@H]4CC[C@H]3C4)C2)cc2c1cnn2C)C(C)C (stereo partly drawn) [Example 31, 2-(6-{1-[(1R,3S,4S)-2-azabicyclo[2.2.1]heptan-3-carbonyl]pyrrolidin-3-yl}-1-methyl-1H-indazol-4-yl)-N-ethyl-5-fluoro-N-(isopropyl)benzamide]",275 nM
7,"CCN(C(=O)c1cc(F)ccc1-c1cc(C2CN([C@@H](CC[C@@H]3COCCN3)C(C)C)C2)cn2c(C)ncc12)C(C)C [Example 449-2, N-ethyl-5-fluoro-2-(3-methyl-6-{1-[(3S)-4-methyl-1-[(3R)-morpholin-3-yl]pentan-3-yl]azacyclobutan-3-yl}imidazo[1,5-a]pyridin-8-yl)-N-(isopropyl)benzamide]",34 nM
8,CCN(C(=O)c1cc(F)ccc1-c1cc(C2CN([C@H](CCCN3CCNC(=O)C3)C(C)C)C2)cn2c(C)ncc12)C(C)C [Example 494],4.1 nM

# Now from value to compound:
row,IC50,Structure (SMILES)
1,179 nM,"Cc1ncc2c(-c3ccc(F)cc3C(=O)N3CCOC[C@H]3C)cc(C3CN([C@@H](CCCN4CCN(C)CC4)C(C)C)C3)cn12 [Example 323-1, (3R)-4-[5-fluoro-2-(3-methyl-6-{1-[(3S)-2-methyl-6-(4-methylpiperazin-1-yl)hexan-3-yl]azacyclobutan-3-yl}imidazo[1,5-a]pyridin-8-yl)benzoyl]-3-methylmorpholine]"
2,118 nM,C[C@@H]1COCCN1C(=O)c1cc(F)ccc1-c1cc(C2CN(CC3CCN(C(=O)CC#N)CC3)C2)cc2c1cnn2C [Example 173]
3,86 nM,"COCC(C1CCOCC1)N1CC(c2cc(-c3ccc(F)cc3C(=O)N3CCOC[C@H]3C)c3c(F)nc(C)n3c2)C1 (stereo partly drawn) [Example 255, (3R)-4-[5-fluoro-2-(1-fluoro-6-{1-[2-methoxy-1-(oxacyclohexan-4-yl)ethyl]azacyclobutan-3-yl}-3-methylimidazo[1,5-a]pyridin-8-yl)benzoyl]-3-methylmorpholine]"
4,78 nM,"CCN(C(=O)c1cc(F)ccc1-c1cc(C2CN([C@H](CN3CCN(CCF)CC3)C(C)C)C2)cc2c1cnn2C)C(C)C [Example 424, N-ethyl-5-fluoro-2-(6-{1-[(2S)-1-[4-(2-fluoroethyl)piperazin-1-yl]-3-methylbutan-2-yl]azacyclobutan-3-yl}-1-methyl-1H-indazol-4-yl)-N-(isopropyl)benzamide]"
5,49 nM,"Cc1nc(F)c2c(-c3ccc(F)cc3C(=O)N3CCOC[C@H]3C)cc(C3CN(C(CC[C@H]4CN(C)CCO4)C(C)C)C3)cn12 (stereo partly drawn) [Example 308, (3R)-4-{5-fluoro-2-[1-fluoro-3-methyl-6-(1-{4-methyl-1-[(2S)-4-methylmorpholin-2-yl]pentan-3-yl}azacyclobutan-3-yl)imidazo[1,5-a]pyridin-8yl]benzoyl}-3-methylmorpholine]"
6,44 nM,Cc1nc(F)c2c(-c3ccc(F)cc3C(=O)N3CCOC[C@H]3C)cc(C3CN(CC4CCN(S(C)(=O)=O)CC4)C3)cn12 [Example 273]
7,30 nM,CC(=O)N1CCN(CCC[C@H](C(C)C)N2CC(c3cc(-c4ccc(F)cc4C(=O)N4CCOC[C@H]4C)c4c(F)nc(C)n4c3)C2)C2(CC2)C1 [Example 334]
8,24 nM,CCOC(=O)N1CCC(CN2CC(c3cc(-c4ccc(F)cc4C(=O)N4CCOC[C@H]4C)c4c(F)nc(C)n4c3)C2)CC1 [Example 270]
9,22 nM,Cc1nc(F)c2c(-c3ccc(F)cc3C(=O)N3CCOC[C@H]3C)cc(C3CN([C@@H](C)C4CCN(C(=O)C(C)(F)F)CC4)C3)cn12 [Example 302]
10,22 nM,COC[C@@H]1CN(CCC[C@@H](C(C)C)N2CC(c3cc(-c4ccc(F)cc4C(=O)N(C(C)C)C(C)C)c4cnc(C)n4c3)C2)CCN1 [Example 505-1]
11,14 nM,"CCN(C(=O)c1cc(F)ccc1-c1cc(C2CN(C(C[C@@H](O)CO)C(C)C)C2)cn2c(C)ncc12)C(C)C (stereo partly drawn) [Example 438, 2-(6-{1-[(5R)-5,6-dihydroxyl-2-methylhexan-3-yl]azacyclobutan-3-yl}-3-methylimidazo[1,5-a]pyridin-8-yl)-N-ethyl-5-fluoro-N-(isopropyl)benzamide]"
12,6 nM,"CO[C@@H]1CN(CCC[C@H](C(C)C)N2CC(c3cc(-c4ccc(F)cc4C(=O)N4CCOC[C@H]4C)c4c(F)nc(C)n4c3)C2)C[C@H]1O [Example 291-1, (3R,4R)-1-[(4R)-4-[3-(1-fluoro-8-{4-fluoro-2-[(3R)-3-methylmorpholin-4-carbonyl]phenyl}-3-methylimidazo[1,5-a]pyridin-6-yl)azacyclobutan-1-yl]-5-methylhexyl]-4-methoxypyrrolidin-3-ol]"
13,5 nM,CCN(C(=O)c1cc(F)ccc1-c1cc(C2CN([C@H](CCCN3CCN(CCC#N)C(=O)C3)C(C)C)C2)cn2c(C)ncc12)C(C)C [Example 493]
14,2 nM,CCN(C(=O)c1cc(F)ccc1-c1cc(C2CN([C@@H](C)C3CCN(C(=O)NC)CC3)C2)cn2c(C)nc(F)c12)C(C)C [Example 283-2]
